This is an account of results in publication PMC4791268, “Inhibition of p300 lysine acetyltransferase activity by luteolin reduces tumor growth in head and neck squamous cell carcinoma (HNSCC) xenograft mouse model” (Oncotarget, 2015).

Each structure is given as a SMILES string.

This experiment deals with T1, p300 (Homo sapiens, UniProt Q09472).
T1 construct: gene EP300; hexahistidine tagged full length p300
Briefly: filter binding KAT assay with HeLa core histones; enzyme inhibition kinetics. The format is biochemical.

T1 sequence (Q09472 2-2414): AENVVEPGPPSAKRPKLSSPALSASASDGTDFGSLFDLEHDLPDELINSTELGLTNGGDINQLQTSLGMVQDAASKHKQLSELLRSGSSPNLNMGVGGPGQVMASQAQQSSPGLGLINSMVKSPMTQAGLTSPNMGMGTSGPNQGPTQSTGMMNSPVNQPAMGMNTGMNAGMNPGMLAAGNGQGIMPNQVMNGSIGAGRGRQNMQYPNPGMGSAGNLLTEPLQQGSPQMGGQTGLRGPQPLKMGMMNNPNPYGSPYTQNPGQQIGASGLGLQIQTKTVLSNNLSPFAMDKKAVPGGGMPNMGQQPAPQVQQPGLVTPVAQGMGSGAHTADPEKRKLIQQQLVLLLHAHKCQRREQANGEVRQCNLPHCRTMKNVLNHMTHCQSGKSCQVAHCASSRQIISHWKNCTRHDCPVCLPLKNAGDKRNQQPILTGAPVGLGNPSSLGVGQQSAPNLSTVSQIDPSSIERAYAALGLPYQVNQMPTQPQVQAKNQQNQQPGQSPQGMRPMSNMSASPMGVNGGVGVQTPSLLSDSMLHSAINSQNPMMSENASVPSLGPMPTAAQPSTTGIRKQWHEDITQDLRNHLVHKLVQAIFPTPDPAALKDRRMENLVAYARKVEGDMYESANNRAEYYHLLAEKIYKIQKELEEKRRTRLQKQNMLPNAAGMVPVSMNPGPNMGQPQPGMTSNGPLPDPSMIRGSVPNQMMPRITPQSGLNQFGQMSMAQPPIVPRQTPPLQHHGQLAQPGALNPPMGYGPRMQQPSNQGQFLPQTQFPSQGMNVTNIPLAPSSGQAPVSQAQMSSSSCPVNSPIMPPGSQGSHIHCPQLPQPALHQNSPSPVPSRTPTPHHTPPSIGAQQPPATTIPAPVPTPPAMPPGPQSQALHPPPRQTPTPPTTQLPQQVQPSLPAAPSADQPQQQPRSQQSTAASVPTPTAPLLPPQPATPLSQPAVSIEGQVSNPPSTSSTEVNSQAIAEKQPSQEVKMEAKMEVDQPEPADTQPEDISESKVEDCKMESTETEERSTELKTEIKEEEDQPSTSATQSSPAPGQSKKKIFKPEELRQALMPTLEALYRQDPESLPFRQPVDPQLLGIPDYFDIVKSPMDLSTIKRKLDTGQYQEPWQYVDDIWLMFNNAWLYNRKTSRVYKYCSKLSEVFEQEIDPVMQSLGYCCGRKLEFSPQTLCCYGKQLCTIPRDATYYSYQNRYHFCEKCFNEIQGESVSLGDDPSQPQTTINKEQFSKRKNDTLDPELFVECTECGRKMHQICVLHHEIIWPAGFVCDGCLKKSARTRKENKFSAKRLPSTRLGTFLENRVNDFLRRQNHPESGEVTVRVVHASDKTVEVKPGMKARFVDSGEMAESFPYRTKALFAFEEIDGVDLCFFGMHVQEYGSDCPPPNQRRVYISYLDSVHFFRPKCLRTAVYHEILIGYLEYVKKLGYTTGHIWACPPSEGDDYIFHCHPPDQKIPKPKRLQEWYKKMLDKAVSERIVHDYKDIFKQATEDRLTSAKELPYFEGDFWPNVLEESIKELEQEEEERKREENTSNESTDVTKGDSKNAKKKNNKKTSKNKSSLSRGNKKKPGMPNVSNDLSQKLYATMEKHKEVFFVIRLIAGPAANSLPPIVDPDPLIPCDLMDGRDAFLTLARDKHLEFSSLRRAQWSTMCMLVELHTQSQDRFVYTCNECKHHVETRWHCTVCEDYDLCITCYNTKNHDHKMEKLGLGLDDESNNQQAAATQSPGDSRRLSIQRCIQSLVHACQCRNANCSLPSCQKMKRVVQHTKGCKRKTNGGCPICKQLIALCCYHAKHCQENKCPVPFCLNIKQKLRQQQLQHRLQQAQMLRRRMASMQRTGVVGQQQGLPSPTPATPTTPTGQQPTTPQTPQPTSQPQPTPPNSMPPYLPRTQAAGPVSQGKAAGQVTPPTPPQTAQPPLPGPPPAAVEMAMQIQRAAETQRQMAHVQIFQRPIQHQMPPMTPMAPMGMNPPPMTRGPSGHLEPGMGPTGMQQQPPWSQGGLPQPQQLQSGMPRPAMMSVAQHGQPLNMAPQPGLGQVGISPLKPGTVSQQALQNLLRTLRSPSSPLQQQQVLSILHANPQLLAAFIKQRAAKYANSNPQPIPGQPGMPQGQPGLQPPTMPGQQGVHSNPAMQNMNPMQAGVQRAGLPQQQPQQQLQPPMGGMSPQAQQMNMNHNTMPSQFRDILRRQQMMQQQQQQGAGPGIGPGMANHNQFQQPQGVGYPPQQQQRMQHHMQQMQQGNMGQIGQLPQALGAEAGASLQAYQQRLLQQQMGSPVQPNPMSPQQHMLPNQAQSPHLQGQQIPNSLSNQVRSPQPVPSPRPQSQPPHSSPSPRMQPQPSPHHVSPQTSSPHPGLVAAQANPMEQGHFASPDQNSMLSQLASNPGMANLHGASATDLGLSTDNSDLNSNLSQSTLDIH

Usually IC50 stands for the point on the concentration scale where inhibition reaches its midpoint. The low end stands for inhibition by little substance, the high end for a need for much substance. Turning to `O=c1cc(-c2ccc(O)c(O)c2)oc2cc(O)cc(O)c12` [luteolin], the IC50 is 7 µM.
